Assay results reported in US9938261B2, “Heterocyclic compounds and methods of use thereof” (AMBIT BIOSCIENCES CORPORATION, priority 2011, dated 2018).

Experiments:
[1] = target: T1, PDGFRβ (Homo sapiens, UniProt P09619); assay: Competition binding assay, PDGFRβ Kd; conditions: competition binding
T1 construct: made in house
Summary of the method: (§1)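 Compound displacement of kinase from bead-immobilized ligand is measured by qPCR after 1 h equilibration at room temperature. Kinases are T7 phage fusions or DNA-tagged HEK-293 products.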

[2] = target: kinase panel containing either 386 or 392 distinct kinases; assay: Kinase selectivity score S10 from competition binding panel; conditions: 10 μM, panel of 386 or 392 distinct kinases
Summary of the method: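 Compounds at 10 μM competed against immobilised affinity ligands for T7 phage-fused or HEK-293-expressed DNA-tagged kinases, 1 h at room temperature; bound kinase eluted and quantified by qPCR. S10 = fraction of distinct non-mutant kinases with percent of DMSO control below 10.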

[3] = tested on: M-NFS-60 cells; assay: M-NFS-60 cell proliferation assay (Alamar Blue); type: cell-based, mouse; conditions: Mus musculus; M-NFS-60 cell proliferation; read-out: CSF1R M-NFS-60 CTB:IC50
Summary of the method: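 Mouse M-NFS-60 cells growing on 20 ng/mL M-CSF in RPMI/10% FBS were exposed to compounds (9 half-log concentrations, 0.5% DMSO) for 72 h at 37 °C. Viability read by Alamar Blue fluorescence (ex 560/em 590 nm, 3 h). IC50 = 50% proliferation inhibition versus control, mean of duplicates.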

[4] = target: T2, FLT3 (Homo sapiens, UniProt P36888); assay: Competition binding assay, FLT3 Kd; conditions: competition binding
T2 construct: made in house
T2 sequence (P36888 27-993): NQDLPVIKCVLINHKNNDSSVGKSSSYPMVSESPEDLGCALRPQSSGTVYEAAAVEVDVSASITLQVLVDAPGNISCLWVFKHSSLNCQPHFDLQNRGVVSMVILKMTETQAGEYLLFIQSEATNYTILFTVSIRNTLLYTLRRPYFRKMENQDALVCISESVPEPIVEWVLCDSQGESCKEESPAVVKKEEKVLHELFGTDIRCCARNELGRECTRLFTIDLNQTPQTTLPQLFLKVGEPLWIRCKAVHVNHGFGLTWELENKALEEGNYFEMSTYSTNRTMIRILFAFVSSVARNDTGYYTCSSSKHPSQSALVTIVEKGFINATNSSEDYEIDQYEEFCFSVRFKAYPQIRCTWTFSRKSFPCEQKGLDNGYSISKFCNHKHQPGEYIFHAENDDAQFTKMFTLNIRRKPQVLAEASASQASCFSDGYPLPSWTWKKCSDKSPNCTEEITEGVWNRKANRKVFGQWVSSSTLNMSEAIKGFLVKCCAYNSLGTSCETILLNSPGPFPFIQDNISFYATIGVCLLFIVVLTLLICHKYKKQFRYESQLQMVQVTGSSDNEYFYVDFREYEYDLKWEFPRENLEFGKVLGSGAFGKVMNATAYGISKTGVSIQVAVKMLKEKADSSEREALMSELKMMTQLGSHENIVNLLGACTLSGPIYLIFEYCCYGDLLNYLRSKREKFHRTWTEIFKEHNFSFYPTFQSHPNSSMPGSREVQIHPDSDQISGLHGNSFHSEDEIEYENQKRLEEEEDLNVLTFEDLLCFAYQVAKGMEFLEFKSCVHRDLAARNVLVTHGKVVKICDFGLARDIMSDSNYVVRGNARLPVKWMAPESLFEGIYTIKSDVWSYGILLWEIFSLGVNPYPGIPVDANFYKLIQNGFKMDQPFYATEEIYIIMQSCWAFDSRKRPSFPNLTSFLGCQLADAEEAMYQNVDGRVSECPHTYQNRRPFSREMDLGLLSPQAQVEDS
Summary of the method: as §1

[5] = target: T3, KIT (Homo sapiens, UniProt P10721); assay: Competition binding assay, KIT Kd; conditions: competition binding
T3 construct: made in house
T3 sequence (P10721 26-976): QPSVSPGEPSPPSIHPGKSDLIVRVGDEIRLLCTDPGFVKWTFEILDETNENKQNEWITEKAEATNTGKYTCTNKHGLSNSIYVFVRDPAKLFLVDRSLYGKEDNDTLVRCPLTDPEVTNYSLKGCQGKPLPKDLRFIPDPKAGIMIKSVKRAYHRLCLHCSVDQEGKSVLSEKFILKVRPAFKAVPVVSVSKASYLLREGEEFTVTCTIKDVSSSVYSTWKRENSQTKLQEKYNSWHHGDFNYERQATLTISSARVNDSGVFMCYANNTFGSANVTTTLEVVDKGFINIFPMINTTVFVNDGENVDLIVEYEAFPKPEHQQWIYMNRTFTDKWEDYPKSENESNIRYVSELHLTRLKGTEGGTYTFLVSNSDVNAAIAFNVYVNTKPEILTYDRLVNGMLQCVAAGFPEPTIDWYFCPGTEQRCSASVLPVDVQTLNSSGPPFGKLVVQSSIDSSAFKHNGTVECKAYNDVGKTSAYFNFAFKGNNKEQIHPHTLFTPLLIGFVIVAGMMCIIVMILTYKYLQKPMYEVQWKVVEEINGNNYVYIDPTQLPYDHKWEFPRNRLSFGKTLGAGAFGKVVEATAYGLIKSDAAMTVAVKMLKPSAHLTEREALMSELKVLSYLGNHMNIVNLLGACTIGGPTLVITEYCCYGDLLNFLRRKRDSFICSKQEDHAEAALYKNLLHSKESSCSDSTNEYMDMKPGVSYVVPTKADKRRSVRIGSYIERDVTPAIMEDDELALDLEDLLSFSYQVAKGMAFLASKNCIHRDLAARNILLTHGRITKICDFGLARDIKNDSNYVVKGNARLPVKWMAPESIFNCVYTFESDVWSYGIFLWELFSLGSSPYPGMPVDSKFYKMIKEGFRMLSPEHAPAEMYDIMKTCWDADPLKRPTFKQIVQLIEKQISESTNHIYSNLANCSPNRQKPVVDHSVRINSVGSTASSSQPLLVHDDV
Summary of the method: as §1

[6] = target: CSF1R (Homo sapiens, UniProt P07333); assay: Competition binding assay, CSF1R Kd; parameters: made in house; conditions: competition binding
Sequence of CSF1R (P07333 20-972): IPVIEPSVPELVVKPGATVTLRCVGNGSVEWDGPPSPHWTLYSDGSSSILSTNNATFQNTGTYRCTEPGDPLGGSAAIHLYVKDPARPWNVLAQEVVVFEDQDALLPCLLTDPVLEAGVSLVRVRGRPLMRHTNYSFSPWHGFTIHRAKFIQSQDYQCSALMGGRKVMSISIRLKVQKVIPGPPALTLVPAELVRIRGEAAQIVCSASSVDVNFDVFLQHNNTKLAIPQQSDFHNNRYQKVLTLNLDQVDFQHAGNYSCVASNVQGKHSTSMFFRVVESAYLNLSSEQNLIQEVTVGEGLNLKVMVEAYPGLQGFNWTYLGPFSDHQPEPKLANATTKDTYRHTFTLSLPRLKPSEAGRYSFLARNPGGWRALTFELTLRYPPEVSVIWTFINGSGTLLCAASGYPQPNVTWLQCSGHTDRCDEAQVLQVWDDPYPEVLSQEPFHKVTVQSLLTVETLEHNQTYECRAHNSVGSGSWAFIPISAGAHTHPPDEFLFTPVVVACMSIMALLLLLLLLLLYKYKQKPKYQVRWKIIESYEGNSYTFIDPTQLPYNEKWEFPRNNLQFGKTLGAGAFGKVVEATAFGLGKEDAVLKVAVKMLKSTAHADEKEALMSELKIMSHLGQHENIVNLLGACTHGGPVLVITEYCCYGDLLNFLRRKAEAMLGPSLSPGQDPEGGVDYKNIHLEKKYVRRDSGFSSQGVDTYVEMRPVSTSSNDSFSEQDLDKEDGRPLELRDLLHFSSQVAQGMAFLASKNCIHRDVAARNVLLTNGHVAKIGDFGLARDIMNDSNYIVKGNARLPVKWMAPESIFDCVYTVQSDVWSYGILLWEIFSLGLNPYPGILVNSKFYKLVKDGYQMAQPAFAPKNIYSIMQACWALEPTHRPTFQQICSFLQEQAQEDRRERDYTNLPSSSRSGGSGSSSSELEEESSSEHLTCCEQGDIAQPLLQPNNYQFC
Summary of the method: as §1

T1 sequence (P09619 33-1106): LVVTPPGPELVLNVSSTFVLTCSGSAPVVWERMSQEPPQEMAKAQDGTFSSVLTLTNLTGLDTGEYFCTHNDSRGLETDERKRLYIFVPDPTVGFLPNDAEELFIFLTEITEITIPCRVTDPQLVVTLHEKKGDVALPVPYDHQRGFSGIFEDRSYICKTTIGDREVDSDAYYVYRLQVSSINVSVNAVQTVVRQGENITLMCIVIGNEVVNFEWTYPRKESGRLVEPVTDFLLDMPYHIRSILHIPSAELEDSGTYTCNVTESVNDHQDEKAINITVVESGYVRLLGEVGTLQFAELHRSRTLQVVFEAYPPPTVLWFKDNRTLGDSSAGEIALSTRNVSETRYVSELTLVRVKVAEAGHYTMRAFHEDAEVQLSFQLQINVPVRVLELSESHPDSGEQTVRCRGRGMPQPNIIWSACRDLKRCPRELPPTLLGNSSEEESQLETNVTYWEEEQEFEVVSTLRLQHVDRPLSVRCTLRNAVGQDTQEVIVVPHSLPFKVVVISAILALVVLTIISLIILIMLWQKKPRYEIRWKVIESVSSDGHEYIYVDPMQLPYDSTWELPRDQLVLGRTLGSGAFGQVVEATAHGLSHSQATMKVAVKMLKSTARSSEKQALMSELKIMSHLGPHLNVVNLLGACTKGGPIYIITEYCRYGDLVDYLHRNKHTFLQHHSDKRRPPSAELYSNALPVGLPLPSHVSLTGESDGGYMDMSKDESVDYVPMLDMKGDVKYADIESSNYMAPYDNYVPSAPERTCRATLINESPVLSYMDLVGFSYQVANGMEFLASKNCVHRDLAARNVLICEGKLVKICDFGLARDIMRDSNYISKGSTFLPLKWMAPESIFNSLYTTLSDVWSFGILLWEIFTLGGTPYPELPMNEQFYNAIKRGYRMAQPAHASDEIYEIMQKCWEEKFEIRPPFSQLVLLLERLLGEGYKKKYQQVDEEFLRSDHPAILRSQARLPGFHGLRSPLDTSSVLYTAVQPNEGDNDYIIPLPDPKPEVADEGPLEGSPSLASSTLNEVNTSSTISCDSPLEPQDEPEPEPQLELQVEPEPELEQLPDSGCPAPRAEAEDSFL

Row | Kd [1] | Kinase specificity S(10) [2] | Kd [4] | Kd [5] | Kd [6] | SMILES | IC50 [3]
1 | 50 to 500 nM | A (A≤0.01) | 1000 to 5000 nM | 100 to 500 nM | 20 to 50 nM | OC[C@H]1CC[C@@H](Nc2nc3ccc(Cn4cnc5cc(F)cnc54)cc3s2)CC1 [Example 180, (cis-4-((6-((6-fluoro-3H-imidazo[4,5-b]pyridin-3-yl)methyl)benzo[d]thiazol-2-yl)amino)cyclohexyl)methanol] | > 1500 nM
2 | 50 to 500 nM | B (0.01<B≤0.02) | ≤ 200 nM | 100 to 500 nM | 5 to 20 nM | O[C@@H]1CCCC[C@H]1Nc1nc2ccc(Cc3cnc4cccc(F)n34)cc2s1 [Example 186, (1R,2R)-2-((6-((5-fluoroimidazo[1,2-a]pyridin-3-yl)methyl)benzo[d]thiazol-2-yl)amino)cyclohexanol] | 400 to 1500 nM
3 | 50 to 500 nM | A (A≤0.01) | 200 to 1000 nM | 100 to 500 nM | ≤ 5 nM | O[C@@H]1CCCC[C@H]1Nc1nc2ccc(Cn3cnc4cc(OC5COC5)ccc43)cc2s1 [Example 182, (1R,2R)-2-((6-((5-(oxetan-3-yloxy)-1H-benzo[d]imidazol-1-yl)methyl)benzo[d]thiazol-2-yl)amino)cyclohexanol] | 50 to 400 nM
